Values quoted from earlier work, collected in paper PMC9747611 (Hypertension Research, 2022).

Tested on: aldosterone synthase
Settings: cited from earlier work

N#Cc1ccc([C@H]2CCc3cncn32)c(F)c1 [LCI699]
increase in 11-deoxycorticosterone levels: up to 10 fold
